# Literature values, collected in US12485133B2, “Inhaled ivermectin” (Hovione Scientia Limited, priority 2021, dated 2025).
# What was measured:
# [1] = not given; remark: listed apart in the source
# [2] = not given; remark: listed apart in the source
# SARS-Cov-2 = conditions: incubated with 5 μM Ivermectin
substance,measurement,setting,value
Ivermectin,solubility in non-polar aprotic solvents such as hexane,hexane,completely insoluble
same,solubility in methanol and 95% ethanol,"methanol, 95% ethanol",freely soluble
same,solubility in water,water,< 1 µg/mL
same,Log P,[1],4.4
same,stability under acidic and basic aqueous conditions,[2]; acidic and basic aqueous conditions,degrades
same,optimal pH for stability,[2]; aqueous conditions,6.3
same,solid state stability (degradation in drug substance batches),"[2]; solid state, 37° C. for 1.5 years",no degradation observed
same,time to eliminate the virus from supernatant and infected cells,SARS-Cov-2,≤ 48 h
